Results published in US20250041263A1, “USE OF CATECHIN FOR THE TREATMENT OF FGFR-RELATED BONE REPAIR AND BONE FORMATION IMPAIRMENT” (INSTITUT NATIONAL DE LA SANTÉ ET DE LA RECHERCHE MÉDICALE, priority 2021, published 2025).

Tested on: HCH mice (Fgfr3^N534K/+)
Assay: Non-stabilized mandibular fracture repair in HCH mouse model (microCT, repair grade)
Type: in vivo
Details: for BV/TV, treated vs untreated HCH mice: p<0.05
Method: I-Study of mandibular bone repair in the mouse model of hypochondroplasia (Fgfr3^[…]/+) Mandibular bone repair was studied in the HCH mouse model (Fgfr3^[…]/+). The experiments were performed in adult animals at 6 weeks of age, and mice were euthanized at 4 key points: during bone repair (10, 14, 21 days post fracture), and at the end of the normal bone healing process i.e. at 28 days post fracture. Vertical mandibular fractures were performed in the ascending ramus region in Fgfr3^[…]/+ and Fgfr3^+/+ mice. This is a non-stabilized mandibular fracture protocol allowing to analyze the endochondral bone repair process. Four batches (n=100) of Fgfr3^[…]/+ and Fgfr3^+/+ mandible fractures corresponding to different key stages of repair were studied (day 10, day 14, day 21, day 28). Using collagen type II (proliferative cartilage), type X (hypertrophic cartilage) and type I (bone) immunolabelling, we observed that the endochondral process is disturbed, we noted a delayed cartilage resorption, a reduction in the size of hypertrophic chondrocytes area and a defect in bone formation within the repair callus in Fgfr3^[…]/+ compared to Fgfr3^+/+. […] We observed the presence of pseudarthrosis (fibrosis in the callus) in Fgfr3^[…]/+ mice whereas we observed 100% of bone in Fgfr3^+/+ callus. Considering the quality of the newly formed bone at day 28, we defined four grades of repair and classified the mice according to their repair grade (from 1 to 4). The defective repair is significant in Fgfr3^[…]/+ compared to Fgfr3^+/+ (Data not shown). HCH mice (Fgfr3^[…]/+) were treated with (-)-epicatechin (subcutaneous injection at 0.3 mg/kg, 3 times per week) from day 0 (facture of the mandible) to day 14 or day 28. The bone repair analyses were evaluated by microCT scans at day 14 (FIG. 1A) and day 28 (FIG. 1B) post fracture.

[1] = summary statement, time not stated
[2] = day 28 grade repair, treated HCH mice
[3] = microCT, day 14 post fracture, FIG. 1A
[4] = microCT, day 28 post fracture, FIG. 1B

Molecule | bone volume/total volume (overall, in words) [1] | mandible bone formation and repair / defective bone reparation of the callus (overall, in words) [1] | pseudarthrosis (overall, in words) [1] | Complete bone healing (grade 1), mice with grade / treated mice [2] | Restoration of bone continuity, but presence of mild bone defects (grade 2), mice with grade / treated mice [2] | presence of a bone callus, but with partial bone discontinuity (grade 3), mice with grade / treated mice [2] | pseudarthrosis in treated HCH mice (day 28 post fracture) | BV/TV of treated Fgfr3^N534K/+ mandibles (in words) [3] | volume of the callus, treated vs untreated Fgfr3^N534K/+ (in words) [3] | BV/TV, treated vs untreated HCH mice (microCT, day 14 post fracture, subcutaneous 0.3 mg/kg, 3 times per week from day 0) | BV/TV of treated Fgfr3^N534K/+ mandibles (in words) [4] | volume of the callus, treated vs untreated Fgfr3^N534K/+ (in words) [4] | volume of the callus, treated vs untreated HCH mice (microCT, day 28 post fracture, subcutaneous 0.3 mg/kg, 3 times per week from day 0, p<0.01) | BV/TV, treated vs untreated HCH mice (microCT, day 28 post fracture, subcutaneous 0.3 mg/kg, 3 times per week from day 0)
catechin | increases | partially restores | without pseudarthrosis |  |  |  |  |  |  |  |  |  |  | 
Oc1cc(O)c2c(c1)O[C@H](c1ccc(O)c(O)c1)[C@H](O)C2 [(−)-epicatechin, (2R,3R)-2-(3,4-dihydroxyphenyl)-3,4-dihydro-2H-chromene-3,5,7-triol] |  | improves |  | 1/9 | 6/9 | 2/9 | did not observe pseudarthrosis | increased | unchanged | +19% | increased | decreased | −39.8% | +6.3%
